Reference: patent US20080255137A1 (Arena Pharmaceuticals, Inc., priority 2004, published 2008)

Tests used:
[1] = target: T1, human 5HT2C receptor (Homo sapiens, UniProt P28335); assay: Intracellular IP3 (IP) accumulation assay, 5HT2C; format: cell-based; details: HEK293 cells transfected with human 5HT2C receptor cDNA
T1 construct: expressed in transfected cells; host or cells: HEK293
T1 sequence (P28335 33-458): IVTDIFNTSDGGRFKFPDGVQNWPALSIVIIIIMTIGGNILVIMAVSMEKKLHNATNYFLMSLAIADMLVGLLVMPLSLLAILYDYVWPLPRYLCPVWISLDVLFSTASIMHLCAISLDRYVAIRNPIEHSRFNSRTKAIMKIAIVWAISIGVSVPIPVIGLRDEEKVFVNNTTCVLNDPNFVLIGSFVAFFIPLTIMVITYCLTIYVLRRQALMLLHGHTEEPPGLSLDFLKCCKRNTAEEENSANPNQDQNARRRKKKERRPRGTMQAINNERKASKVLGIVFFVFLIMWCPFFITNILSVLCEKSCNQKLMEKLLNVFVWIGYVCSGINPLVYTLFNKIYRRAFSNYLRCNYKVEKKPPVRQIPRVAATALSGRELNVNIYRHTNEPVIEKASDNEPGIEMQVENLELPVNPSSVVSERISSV
Procedure: HEK293 cells were transfected in 15 cm sterile dishes with or without (control) 16 ug of human 5HT2C receptor cDNA [for example see, Saltzman, A. G., et al. Biochem. Biophys. Res. Commun. 181, 1469-1478 (1991)] using 25 ul of lipofectamine. Cells were then incubated for 3-4 hours at 37° C./5% CO2 and then transfection media was removed and replaced with 100 ul of DMEM. Cells were then plated onto 100 cm sterile dishes. The next day cells were plated into 96 well PDL microtiter plates at a density of 55K/0.2 mL. Six hours latter, media was exchanged with [^3H]inositol (0.25 uCi/well) in inositol free DMEM and plates were incubated at 37° C./5% CO2 overnight. The next day, wells were aspirated and 200 ul of DMEM containing test compound, 10 uM pargyline, and 10 mM LiCl was added to appropriate wells. Plates were then incubated at 37° C./5% CO2 for three hours followed aspiration and by addition of fresh ice cold stop solution (1M KOH, 19 mM Na-borate, 3.8 mM EDTA) to each well. Plates were kept on ice for 5-10 min and the wells were neutralized by addition of 200 ul of fresh ice cold neutralization solution (7.5% HCl). Plates were then frozen until further processing is desired. The lysate was then transferred into 1.5 mL Eppendorf tubes and 1 mL of chloroform/methanol (1:2) was added/tube. […]

[2] = target: 5HT2B receptor (Homo sapiens, UniProt P41595); assay: Activity against the 5HT2B receptor (selectivity); format: cell-based
[3] = target: 5HT2A receptor (Homo sapiens, UniProt P28223); assay: EC50 against the 5HT2A receptor (selectivity); format: cell-based
[4] = system: guinea pigs; details: repeat administration; cited from earlier work

5HT2B receptor, sequence (P41595 whole entry): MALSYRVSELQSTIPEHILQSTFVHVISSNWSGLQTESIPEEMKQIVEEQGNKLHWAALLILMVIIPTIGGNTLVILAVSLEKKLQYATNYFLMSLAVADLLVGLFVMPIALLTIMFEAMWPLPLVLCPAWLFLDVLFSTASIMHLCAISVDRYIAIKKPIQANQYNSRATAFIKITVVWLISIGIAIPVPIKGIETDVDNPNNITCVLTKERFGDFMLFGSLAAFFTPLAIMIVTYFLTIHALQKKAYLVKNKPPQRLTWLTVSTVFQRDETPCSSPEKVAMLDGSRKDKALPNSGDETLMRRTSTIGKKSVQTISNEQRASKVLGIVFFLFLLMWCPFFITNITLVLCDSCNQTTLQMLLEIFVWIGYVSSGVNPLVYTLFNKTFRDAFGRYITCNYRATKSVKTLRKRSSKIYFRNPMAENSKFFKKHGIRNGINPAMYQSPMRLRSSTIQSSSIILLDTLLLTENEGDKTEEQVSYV
5HT2A receptor, sequence (P28223 whole entry): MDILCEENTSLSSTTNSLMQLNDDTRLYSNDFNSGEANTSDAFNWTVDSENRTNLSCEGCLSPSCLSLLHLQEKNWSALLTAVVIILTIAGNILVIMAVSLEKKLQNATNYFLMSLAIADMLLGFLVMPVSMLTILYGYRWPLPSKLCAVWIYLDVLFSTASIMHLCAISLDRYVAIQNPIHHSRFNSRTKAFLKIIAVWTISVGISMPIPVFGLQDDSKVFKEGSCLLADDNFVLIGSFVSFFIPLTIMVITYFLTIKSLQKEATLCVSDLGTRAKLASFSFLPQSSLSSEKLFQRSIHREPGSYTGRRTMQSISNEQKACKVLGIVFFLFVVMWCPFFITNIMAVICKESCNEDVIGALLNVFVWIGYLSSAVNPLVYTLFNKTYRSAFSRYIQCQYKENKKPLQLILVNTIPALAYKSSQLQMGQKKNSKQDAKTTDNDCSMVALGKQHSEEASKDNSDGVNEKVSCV

Compound | EC50 [1] [nM] | activity against the 5HT2B receptor [2] | EC50 [3] [nM] | amyloid precursor protein (APPs) secretion [4] | levels of Aβ production in vivo [4]
C[C@@H]1CNCCN1c1cc(F)cc(-c2ccsc2)c1 [Compound 1] | 2 |  |  |  | 
C[C@@H]1CNCCN1c1cccc(-c2ccccc2)c1F [Compound 10, (R)-1-(2-Fluoro-biphenyl-3-yl)-2-methyl-piperazine] | 5 | essentially inactive | ~1700 |  | 
C[C@H](N)Cc1cccc(C(F)(F)F)c1 [DEXNOR, dexnorfenfluramine] |  |  |  | stimulated | reducing
